Read-outs that look alike come from different tables or passages of the source.
Columns and labels:
[1] = molecular target: monoclonal receptor P3 6D4; assay: Stoichiometric transacylation reaction of monoclonal receptor P3 6D4 with coumarin ester Compound 5 (fluorescence) and its inhibition/inactivation; format: biochemical, mouse
Description: A Perkin-Elmer LS-5 fluorescence spectrometer was operated at a fixed wavelength, using 355 nanometers (nm) for excitation and measuring the emission at 455 nm. A stock solution of the coumarin ester 5 was prepared in dioxane and was diluted to the desired concentrations in Tris-HCl (50 mM, pH 7) or sodium phosphate (50 mM, pH 4-9).
Reactions were run at 23 degrees C and were initiated by the addition of an aliquot of antibody solution (1 mg/ml) to substrate solutions to provide a final protein concentration of 100 nM. Final fluorescence values were determined by hydrolysis of the substrate with pig liver esterase. The observed reaction rate was corrected for spontaneous hydrolysis. Reaction kinetics were studied by measuring initial rates under pseudo-first order conditions. Active protein concentration was extrapolated from fluorescence values at the end of the reaction. The kinetic parameters were obtained by fitting the data to a hyperbolic curve and from double reciprocal plots. Inhibition constants were determined from the Lineweaver-Burk plot data with at least five inhibitor concentrations. All the data were studied by a least squares analysis.
Antibody preparations were inactivated without introducing fluorescent products by the addition of the activated ester (Compound 8) in dioxane to a solution of the IgG (5 mg/ml) in Tris-HCl (50 mM, pH 6.5) at a ratio of 5 moles of the ester (Compound 8) per mole IgG.
Protein modification was performed in an analogous manner, by the addition of a dioxane solution of the reagent at a known concentration to the antibody. The solution was incubated for 30 minutes before filtration through Sephadex G-25. The activity remaining was compared to control samples. Aliquots of IgG (5 mg/ml) inactivated with the ester (Compound 8) were diluted with four volumes of phosphate buffer (50 mM, pH 4-9, at intervals of 1 pH unit). Any pH change was recorded, and the sample was stored at 4 degrees C for 24 hours.
Initially, the ester was used at a concentration that was about four-fold greater than that of the protein, and the mixture was incubated at pH 7.2 for 10 minutes. Any change in fluorescence above background was noted.
The termination of the reaction is noted by the return of the rate of fluorescence increase to the background level.

[2] = molecular target: monoclonal antibody P3 6D4; assay: Kinetics and inhibition of catalytic ester hydrolysis by monoclonal antibody P3 6D4, spectrophotometric at 245 nm; format: biochemical, mouse; conditions: for Ki: substrate Compound 7, read-out: inhibition constant ki, catalytic reaction with Compound 7
Description: FIG. 4 illustrates a Lineweaver-Burk plot for the hydrolysis of Compound 7 by anti-Compound 4 monoclonal antibody from hybridoma P3 6D4. Velocities were determined spectrophotometrically by measuring initial rates during the first linear portion of the reaction as described with reference to Table 2. The substrate concentrations were corrected for amounts consumed during initial equilibration. ( ) No inhibitor present. ( ) Inhibited by 50 nM phosphonate (Compound 3). ( ) Inhibited by 100 nM phosphonate (Compound 3).
In particular, an exemplary monoclonal receptor was produced by the standard hybridoma technology of Kohler et al., Nature, 256, 495 (1975). Specifically, female 129G1X^+ mice were immunized by intraperitoneal injection with an inoculum of 100 micrograms of conjugate (e.g., Compound 4i bound to KLH) in 300 microliters of a 1:1 mixture of phosphate buffered saline (PBS) pH 7.4 and complete Freund's adjuvant. Two weeks later, the mice were again injected in a like manner with 50 micrograms of the foregoing conjugate in 300 microliters of a 1:1 mixture of PBS (pH 7.4) and 10 mg/ml alum. After an additional eight weeks, the mice were immunized intravenously with 50 micrograms of the conjugate in 200 microliters of PBS (pH 7.4). The spleens were removed from the mice 4 days later, and the spleen cells were fused to myeloma cells.
Reaction kinetics were measured spectrophotometrically by following the absorption change at 245 nanometers. […] Kinetic parameters obtained with these substrates are shown in Table 2 along with the inhibition constants obtained with phosphonate (Compound 3). Under these conditions, the acceleration above the background rate is about 960-fold for Compound 7 and about 200-fold for Compound 8 (corrected for the background hydrolysis rate).
*The kinetic parameters shown in Table 2 are for the hydrolysis of esters
(Compounds 7 and 8) by monoclonal antibody P3 6D4. A PerkinElmer lambda 4
spectrophotometer, equipped with thermostatted cell holder, was used to
measure absorption changes at 245 nm. Cells containing the substrate at
concentrations of 0.5 to 50 micromolar in phosphate buffer (50 mM, pH 8.0
were preequilibrated at 25 degrees C. The concentration of active IgG in
stock solution was found by reacting with the coumarin ester (Compound 5)
and measuring the yield of hydroxycoumarin by fluorescence. The kinetic
run was initiated by addition of an aliquot of the antibody stock solutio
(in 50 mM phosphate buffer, pH 8.0) calculated to give 100 nM IgG. The
mixture was allowed to equilibrate for 2 to 3 minutes and the rate was
then measured during the subsequent 10 minutes. The absorption change for
complete hydrolysis was determined by treatment with esterase. Kinetic
parameters were obtained from L ineweaverBurk plots (see FIG. 4).
Inhibition constants were determined from a plot of the slopes with at
least four inhibitor concentrations of Compound 3. The data were analyzed

[3] = substrate Compound 5, estimated, read-out: inhibition constant, stoichiometric reaction with Compound 5

`CC(=O)Nc1ccc(OP(=O)(O)Cc2ccc(NC(=O)C(F)(F)F)cc2)cc1` [Compound 1i] was tested, and the Ki [1, 3] was 100 nM and the Ki [2] was 800 nM.
Molecule `CC(=O)Nc1ccc(OP(=O)(O)Cc2ccc(NC(=O)C(F)(F)F)cc2)c(CNC(=O)c2cccc(C(=O)O)n2)c1` [Compound 3i] has a Ki [1, 3] of 35 nM, a Ki ([1]; summary, kinetic parameters at low pH values, read-out: Ki (inhibition of antibody esterolysis)) of 35 nM and a Ki [2] of 160 nM.
With `O=C(O)c1ccccn1` [picolinic acid, reference compound] the “effect of additive on antibody-enhanced esterolysis of Compound 5” value ([1]; up to 100 micromolar added zinc and picolinic acid, EDTA concentration not given) was “No effect” and the “effect of additive on rate of reaction of Compound 7 with antibody” value ([2]; picolinic acid alone or picolinic acid and zinc chloride) was “no effect”.
